Several values for one entry are separate records, joined by “and”; a condition that tells them apart may be missing. Identical values can stand only once.
Biological target: T1, rat TRPV2 (Rattus norvegicus, UniProt Q9WUD2, A713V/L151P/T158I)
T1 construct: A cDNA fragment encoding the full-length rat TRPV2 was subcloned into pCI-neo; expressed in transfected cells
T1 sequence (Q9WUD2 1-761 L151P/T158I/A713V): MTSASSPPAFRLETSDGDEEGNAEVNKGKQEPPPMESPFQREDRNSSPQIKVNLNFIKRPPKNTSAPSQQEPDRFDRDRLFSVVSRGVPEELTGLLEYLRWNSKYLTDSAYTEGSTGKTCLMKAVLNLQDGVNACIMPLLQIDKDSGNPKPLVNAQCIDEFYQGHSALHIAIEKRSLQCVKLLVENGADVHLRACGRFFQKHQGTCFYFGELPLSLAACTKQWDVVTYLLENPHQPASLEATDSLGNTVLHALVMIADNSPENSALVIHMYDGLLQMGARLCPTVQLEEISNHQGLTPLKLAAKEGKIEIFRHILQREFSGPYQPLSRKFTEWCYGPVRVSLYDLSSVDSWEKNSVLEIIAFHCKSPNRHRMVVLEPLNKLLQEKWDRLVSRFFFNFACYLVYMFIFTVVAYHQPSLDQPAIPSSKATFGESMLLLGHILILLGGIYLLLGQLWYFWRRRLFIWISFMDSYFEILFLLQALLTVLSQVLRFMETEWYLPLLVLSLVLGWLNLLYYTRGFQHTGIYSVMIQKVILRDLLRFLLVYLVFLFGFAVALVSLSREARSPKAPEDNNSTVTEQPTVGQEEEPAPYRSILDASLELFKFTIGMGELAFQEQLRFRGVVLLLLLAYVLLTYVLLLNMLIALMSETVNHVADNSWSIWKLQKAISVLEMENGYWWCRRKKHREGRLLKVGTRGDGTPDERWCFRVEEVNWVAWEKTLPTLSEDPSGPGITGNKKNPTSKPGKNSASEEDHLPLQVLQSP
Test: FLIPR calcium mobilization assay in rat TRPV2-expressing HEK293 cells
Assay type: cell-based
Experimental: A cDNA fragment encoding the full-length rat TRPV2 was subcloned into pCI-neo (Promega, Madison, Wis.) mammalian expression vector. The expression construct was then transfected into HEK293 cells with FuGene6 transfection reagent (Roche, Indianapolis, Ind.) according to the vendor's protocol. Stable cell lines were selected by growth in the presence of 400 μg/ml G418. Single G418 resistant clones were isolated and purified.
The rat TRPV2-expressing HEK293 cells were seeded in a 384-well plate at a concentration of 5×10^3 cells/well and incubated overnight at 37° C. The following day, the cells were loaded with buffer and calcium dye 3 (Molecular Devices, Sunnyvale, Calif.) in a final volume of 50 μl and incubated for 30 minutes at 37° C./5% CO2 followed by 30 additional minutes at room temperature. The fluorescence intensity was measured by a fluorescent plate reader (FLIPR) before, during and after the addition of test compounds.
All data was normalized to that observed for 100 μM Δ^9-THC.

Delta-9-tetrahydrocannabinol [Δ^9-THC]
elevation of intracellular Ca2+ in rat TRPV2-expressing HEK293 cells (100 μM): robust elevation of intracellular Ca^2+
% Response (activation of rat TRPV2) (100 μM compound (anandamide 120 μM), normalized to 100 μM Δ^9-THC): 100%
Hill slope of rat TRPV2 activation (FLIPR concentration-response, FIG. 4B): 1.04
EC50 (FLIPR, rat TRPV2-expressing HEK293 cells, read-out: EC50 (activation of rat TRPV2)): 15.7 µM and 15.5 µM
